Legend:
[1] = system: endocervical model co-culture; assay: Bioplex cytokine production in co-culture supernatants, endocervical model; type: cell-based, human; conditions: FIG. 4
Method: Vaginal- and endocervix-cell bearing microcarriers were collected, washed, and re-suspended in 30 mL of KSFM complete medium (Invitrogen, with EGF and BPE), CaCl, and Primocin (InvivoGen). They were then placed on a shaker in polystyrene bottles with vented caps in an incubator (5% CO2, 37° C.) to mimic the circular agitation of the RWV bioreactor. The two types of cell-bearing microcarriers were primed using E. coli as the antigen to mimic an in vivo infection of the female reproductive mucosa through the following steps after a day of culture in the incubator. The E. coli was heat-inactivated and the resulting bioparticles were added at a concentration of 1×10^6/mL to the shaker bottles. E. coli bioparticles alone and no-treatment conditions served as positive and baseline controls, respectively.
The effect of the microbicide nonoxynol-9 (N-9) on antigen priming was studied in experiments by mimicking in vivo microbicidal exposure through the use of Conceptrol®, leading to tissue damage, followed by bacterial infection. Over-the-counter, N-9-containing Conceptrol® was diluted to 20 μg/mL. The concentration of Conceptrol® was chosen to limit massive cell death due to presence of N-9 and reported findings of weakened membrane integrity in the presence of this surfactant microbicide (Dayal, 2003). […]

[2] = system: PTE antigen-presenting cells; assay: Total immune cell recovery by trypan blue exclusion and flow cytometry (FIG. 2); type: cell-based, human; conditions: FIG. 2 legend; model not specified
Method: FIG. 2. Total immune cell recovery calculated by trypan blue exclusion and total DCs per treatment were calculated by applying the percentage marker expression from flow cytometry data. […] CD86 and CCR7 expression in the vaginal model also confirm the antigen uptake/presentation responsiveness of the vaginal model.
The quality of immune APCs was determined by quantifying dendritic cell marker expression (HLA-DR, CD14, CD86, CCR7) from the reverse-transmigrated cell fraction of the MIMIC® co-cultures.

vaginal epithelial cells = conditions: background statement; cited from earlier work
[3] = system: dendritic cells in endocervical model co-culture; assay: MIMIC co-culture of primed endocervical epithelial microcarriers with PTE module: dendritic cell recovery; type: cell-based, human; conditions: FIG. 2
Source text: (§1) Our experimental design of the MIMIC® co-culture of RWV bioreactor-grown epithelial tissue from selected female reproductive tract tested the efficacy of the differentiated epithelia to pick up and present antigen (FIG. 1). RWV-cultured female reproductive microcarriers of differentiated vaginal and endocervical mucosa were exposed to microbicide/spermicide and bacterial antigen and then introduced to the APC-containing PTE module to study the innate immune responses to Nonoxynol-9 and E. coli bioparticulate treatments.
(§2) Approximately 3.5-week cultured vaginal tissue aggregates and endocervical tissue aggregates were used to mimic the local mucosal tissue of the female reproductive vaginal and endocervical regions. Cell-bearing microcarrier beads were prepared as follows. Collagen-coated Cytodex beads (Sigma) composed of dextran and having an average size of ˜60-87 microns were prepared for cell attachment by soaking in sterile PBS overnight and autoclaved. […]
(§3) Specifically, for the differentiated reproductive epithelial microcarrier co-cultures used here, we generated PTE modules over a period of 2 weeks as follows (see FIG. 1). […] Cell layer integrity and viability were assessed by phase contrast microscopy and/or trypan blue exclusion staining. […]

[4] = system: dendritic cells in vaginal model co-culture; assay: MIMIC co-culture of primed vaginal epithelial microcarriers with PTE module: dendritic cell recovery; type: cell-based, human; conditions: FIG. 2
Source text: as §1, §2, §3

[5] = N-9 and E. coli bioparticles delivered together
[6] = single treatment, N-9 20 μg/mL, E. coli bioparticles 1×10^6/mL, overnight co-culture

nonoxynol-9 [N-9]
cytokine levels versus no treatment microcarrier plus PTE control [1]: above the no treatment microcarrier plus PTE control | total DC viability [2]: reduced | effect on vaginal epithelial cells in vitro (vaginal epithelial cells): increased inflammation, cell death, and damaged tissue mucosa | live dendritic cell recovery [3, 5]: overall reduction in live dendritic cell recovery | live dendritic cell recovery [3, 6]: overall reduction in live dendritic cell recovery | live dendritic cell recovery [4, 5]: overall reduction in live dendritic cell recovery | live dendritic cell recovery [4, 6]: overall reduction in live dendritic cell recovery
